The values that follow come from patent publication US8975417B2, “Pyrazolopyrrolidine derivatives and their use in the treatment of disease” (Novartis AG, priority 2013, dated 2015).

SMILES strings stand for the structures. Bounds are passed on as bounds.

The target of one assay is His-Brd4(44-477) (Homo sapiens (Human), UniProt O60885). Put plainly: TR-FRET in-vitro binding assay for BRD4. The conditions noted are these: biochemical. An outline of the steps:
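Assay buffer HEPES pH 7.5/NaCl/Tween20/BSA; protein solution 45 nM, peptide solution 60 nM acetyl-H4 (AcK5,8,12,16). Incubated 30 °C for 35 min; Eu-anti-His6 and SA-APC detection, TR-FRET read.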

For assay [1], the target named is His-CREBBP (1081-1197) bromodomain (Homo sapiens (Human), UniProt Q92793). Put plainly: AlphaScreen in-vitro binding assay for CREBBP. The conditions noted are these: biochemical. Put shortly:
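Ni-chelate acceptor and streptavidin donor beads (45 µg/mL each, in 50 mM HEPES pH 7.5, 150 mM NaCl, 0.02% BSA) were then added for 60 min at room temperature. IC50 came from 8-point non-linear regression.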

A further assay concerns MV-4-11 cells. Put plainly: Cell growth inhibition assay (CellTiter-Glo), MV-4-11. The format is cell-based. The conditions noted are these: Homo sapiens, MV4-11, read-out: MV-4-11 TGI. Put shortly: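 CTG luminescence (cellular ATP) after compound treatment; values background- and day 0-corrected, vehicle (0.1% DMSO) = 100%, medium only = −100%. Dose range: 3-fold dilutions from 10 μM. IC50/TGI by 4-parameter fit.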

His-CREBBP (1081-1197) bromodomain, sequence (Q92793 1081-1197): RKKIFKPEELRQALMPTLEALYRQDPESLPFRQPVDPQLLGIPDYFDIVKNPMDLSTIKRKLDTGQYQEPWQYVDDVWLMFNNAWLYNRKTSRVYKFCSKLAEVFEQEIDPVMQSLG

With `CCc1nn(CCOCC(F)(F)F)c2c1C(c1ccc(Cl)cc1)N(c1cc(OC)c3nnc(C)n3c1)C2=O` (stereo not drawn) [Example 108, 4-(4-chlorophenyl)-3-ethyl-5-(8-methoxy-3-methyl-[1,2,4]triazolo[4,3-a]pyridin-6-yl)-1-(2-(2,2,2-trifluoroethoxy)ethyl)-4,5-dihydropyrrolo[3,4-c]pyrazol-6(1H)-one], the IC50 on His-Brd4(44-477) was 140 nM; in assay [1], more than 37000 nM. In addition, in the assay with MV-4-11 cells, the IC (total growth inhibition) amounted to 0.445 µM.
Take `COc1ncccc1-n1nc(C)c2c1C(=O)N(c1cc(C)c3nnn(C)c3n1)C2c1ccc(Cl)cc1` (stereo not drawn) [Example 109, 4-(4-chlorophenyl)-5-(3,7-dimethyl-3H-[1,2,3]triazolo[4,5-b]pyridin-5-yl)-1-(2-methoxypyridin-3-yl)-3-methyl-4,5-dihydropyrrolo[3,4-c]pyrazol-6(1H)-one]: the IC50 was 17 nM on His-Brd4(44-477) and more than 37000 nM in assay [1]. Also, the IC (total growth inhibition) in the assay with MV-4-11 cells is 0.0381 µM.
For the molecule `Cc1nn(C2CC2)c2c1C(c1ccc(Cl)cc1)N(c1cc(C)c3nnn(C)c3n1)C2=O` (stereo not drawn) [Example 110, 4-(4-chlorophenyl)-1-cyclopropyl-5-(3,7-dimethyl-3H-[1,2,3]triazolo[4,5-b]pyridin-5-yl)-3-methyl-4,5-dihydropyrrolo[3,4-c]pyrazol-6(1H)-one], the figures for the IC50 (at His-Brd4(44-477); in assay [1]) were 12 nM and more than 37000 nM, respectively. Besides, in the assay on MV-4-11 cells, the IC (total growth inhibition) was 0.0102 µM.
For `COc1ncccc1-n1nc(C)c2c1C(=O)N(c1cc(C)c3nnc(C)n3n1)C2c1ccc(Cl)cc1` (stereo not drawn) [Example 111, 4-(4-chlorophenyl)-5-(3,8-dimethyl-[1,2,4]triazolo[4,3-b]pyridazin-6-yl)-1-(2-methoxypyridin-3-yl)-3-methyl-4,5-dihydropyrrolo[3,4-c]pyrazol-6(1H)-one], in that order: 17 nM, 29700 nM and 0.0306 µM.
For `Cc1nn(C2CC2)c2c1C(c1ccc(Cl)cc1)N(c1cc(N(C)C(=O)OC(C)(C)C)c3nnc(C)n3n1)C2=O` (stereo not drawn) [Example 112, tert-butyl (6-(4-(4-chlorophenyl)-1-cyclopropyl-3-methyl-6-oxopyrrolo[3,4-c]pyrazol-5(1H,4H,6H)-yl)-3-methyl-[1,2,4]triazolo[4,3-b]pyridazin-8-yl)(methyl)carbamate], the IC50 (at His-Brd4(44-477); in assay [1]) was more than 37000 nM in each case. For the same molecule, the IC (total growth inhibition) with MV-4-11 cells came out at 1.21 µM.
Consider `Cc1nn(-c2ccnn2C)c2c1C(c1ccc(Cl)cc1)N(c1cc(C)c3nnc(C)n3n1)C2=O` (stereo not drawn) [Example 114, 4-(4-chlorophenyl)-5-(3,8-dimethyl-[1,2,4]triazolo[4,3-b]pyridazin-6-yl)-3-methyl-1-(1-methyl-1H-pyrazol-5-yl)-4,5-dihydropyrrolo[3,4-c]pyrazol-6(1H)-one], for which the IC50 is 27 nM at His-Brd4(44-477) and more than 37000 nM in assay [1]. The IC (total growth inhibition) in the assay on MV-4-11 cells was found to be 0.0443 µM.
With `CCn1nc2c(c1C)C(c1ccc(Cl)cc1)N(c1cc(C)c3nnc(C)n3c1)C2=O` (stereo not drawn) [Example 115, 4-(4-chlorophenyl)-5-(3,8-dimethyl-[1,2,4]triazolo[4,3-a]pyridin-6-yl)-2-ethyl-3-methyl-4,5-dihydropyrrolo[3,4-c]pyrazol-6(2H)-one], the values for the IC50 (at His-Brd4(44-477); in assay [1]) were 43 nM and 1200 nM, respectively. The IC (total growth inhibition) in the assay with MV-4-11 cells was 0.0482 µM.
Taken in the same sequence, the figures for `CCn1nc(C)c2c1C(=O)N(c1cc(C)c3nnc(C)n3c1)C2c1ccc(Cl)cc1` (stereo not drawn) [Example 116, 4-(4-chlorophenyl)-5-(3,8-dimethyl-[1,2,4]triazolo[4,3-a]pyridin-6-yl)-1-ethyl-3-methyl-4,5-dihydropyrrolo[3,4-c]pyrazol-6(1H)-one] were 32 nM, 15000 nM and 0.0301 µM.
